Patent US12023336B2, “Antiviral drug compounds and composition thereof” (priority 2018, dated 2024)
Structures can show the parent of a compound that is named as a salt. Where two headings read alike, the source gives them in different places.

What was measured:
Type in all cases: cell-based
HIV-1NL4.3 [1] = assay: microbe, parasite or virus in culture; settings: for inhibition at 10 µM: read-out: % Inhibition at 10 μM Concentration
Protocol: TZM-bl cells were seeded at the density of 12,000-15,000 cells/well of 96 well plate with 100 μL DMEM (with 10% FBS) in each well. 12-hours post seeding, the media was replaced with fresh DMEM containing HTV-1NL4.3 at 0.1 MOI and cells were treated with different molecules independently at 10 μM working concentration. Cells were incubated in humidified CO2 incubator for 4-hours. After incubation, the media was replaced and cells were washed twice with incomplete DMEM and 100 μL of complete DMEM was added in each wells along with the molecules of interest and incubated at 37° C. in humidified CO2 incubator. 48-hours post incubation, the media was removed and cells were washed twice with 100 μL of 1×PBS. After washing, cells were lysed using cell culture lysis reagent and Steady-Glo substrate was added at 1:1 ration in each well. Luminescence was measured using Molecular Devices M5 (Table 2). % Inhibition was calculated using following formula and plotted.
[formula] (RLU=Relative Luminescence Unit)

HIV-1NL4.3 [2] = system: HIV-1NL4.3
Protocol: Cells were then treated with molecules at different concentrations.

CEM-GFP cells = assay: MTT cell viability assay in CEM-GFP cells; settings: concentration at which cell viability was 50%
Protocol: (a-b) CEM-GFP cells were treated with different concentrations of MTX-HYD and MTX and cytotoxicity was determined by MTT cell viability assay. […] (c-d) CEM-GFP cells were infected with 0.5 MOI (Multiplicity of infection) of HIV-1NL4.3 virus in presence of MTX-HYD or MTX. 72-hours post infection supernatant was collected and virus production was determined by p24 antigen capture ELISA.
Cytotoxicity of MTX-HYD and MTX and their analogues was determined by MTT cell proliferation assay kit, (Roche, Germany) as described earlier. Briefly, cells were seeded at the density of 25,000 cells/well in 96 well plate containing 100 μL of RPMI. Molecules at different concentration was added to the media and incubated in humidified CO2 incubator. Untreated cells were taken as negative control and DMSO treated cells were taken as vehicle control. 48-hours post incubation, 10 μL of MTT (5 mg/mL) was added in each well in dark and incubated at 37° C. for the formation of formazan crystals. 4-hours post incubation, the crystals were dissolved using 100 μL isopropanol and the absorbance was read at 570 nm.

[3] = Human immunodeficiency virus 1, 10 μM, HIV-1NL4.3 0.1 MOI, TZM-bl cells, luminescence 48 h
[4] = 10 μM, HIV-1NL4.3 0.1 MOI, TZM-bl cells, luminescence 48 h

Structure (SMILES) | inhibition at 10 µM (HIV-1NL4.3 [1]; [3]) | % Inhibition at 10 μM Concentration (HIV-1NL4.3 [1]; [4]) | further results
CC[C@@]1(O)C(=O)OCc2c1cc1n(c2=O)Cc2cc3c(CN(C)C)c(O)ccc3nc2-1 [Topotecan hydrochloride hydrate] | 98.1% |  | 
[2H]C([2H])([2H])N(Cc1cnc2nc(N)nc(N)c2n1)c1ccc(C(=O)N[C@@H](CCC(=O)O)C(=O)O)cc1 [MTX-methyl-d3] |  |  | inhibition of replication of HIV-1NL4.3 (HIV-1NL4.3 [2]; 100 nM, CEM-GFP (FIG. 9)): inhibits replication of HIV-1NL4.3
N[C@@H](Cn1oc(=O)[nH]c1=O)C(=O)O [(+)-Quisqualic acid] |  | 99.30% | 
CNCCNS(=O)(=O)c1cccc2cnccc12.Cl.Cl [H-8 dihydrochloride] |  | 99.57% | 
CC(C)(C)c1ccc(C(O)CCCN2CCC(C(O)(c3ccccc3)c3ccccc3)CC2)cc1 (centres unmarked) [Terfenadine] | 98.7% |  | 
Cc1ccc(-c2cc(C(F)(F)F)nn2-c2ccc(S(N)(=O)=O)cc2)cc1 [Celecoxib] | 95.1% |  | 
Cc1ccc(S(=O)(=O)N[C@@H](Cc2ccccc2)C(=O)CCl)cc1 [N-p-Tosyl-L-phenylalanine chloromethyl ketone] |  | 98.76% | 
CCN(CC)CCCC(C)Nc1c2ccc(Cl)cc2nc2ccc(OC)cc12 (centres unmarked) [Quinacrine dihydrochloride] | 100% |  | 
CCCCNc1c(C(=O)OCC)c(C)nc2c1cnn2CC [Tracazolate] | 99.1% |  | 
Cc1cnc(C(=O)NCCc2ccc(S(=O)(=O)NC(=O)NC3CCCCC3)cc2)cn1 [Glipizide] | 98.5% |  | 
NC(Cc1cc(O)c(O)cc1O)C(=O)O (racemic) [6-Hydroxy-DL-DOPA] |  | 96.67% | 
CN[C@@H]1C[C@@H](c2ccc(Cl)c(Cl)c2)c2ccccc21 [Indatraline hydrochloride] | 97.4% |  | 
Oc1c2ccccc2c2c3c(cccc13)N=N2 [SP600125] | 97.5% |  | 
CC1=NN=C(c2ccc(N)cc2)c2cc3c(cc2C1)OCO3 [GYKI 52466 hydrochloride] | 99.3% |  | 
O=C(O)/C=C\C(=O)O.O=C1/C(=C/c2ccccc2)C[C@@]2(O)[C@H]3Cc4ccc(O)c5c4[C@@]2(CCN3CC2CC2)[C@H]1O5 [BNTX maleate salt hydrate] |  | 99.26% | 
COC(=O)CCC(NC(=O)c1ccc(N(C)Cc2cnc3nc(N)nc(N)c3n2)cc1)C(=O)OC (centres unmarked) [MTX-methyl-d3-Dimethyl Ester, Methotrexate-methyl-d3-Dimethyl ester] |  |  | CC50 (CEM-GFP cells): 47.3 ± 1.51 µM; IC50 (HIV-1NL4.3 [2]; CEM-GFP cells, HIV-1NL4.3 0.5 MOI, p24 ELISA 72 h post infection): 0.0099 ± 0.00151 µM
COc1cc2nc(N3CCN(C(=O)C4COc5ccccc5O4)CC3)nc(N)c2cc1OC (centres unmarked) [Doxazosin mesylate] | 100% |  | 
N#CC(=C(/N)Sc1ccccc1N)/C(C#N)=C(\N)Sc1ccccc1N [U0126] |  |  | inhibition at 10 µM (HIV-1NL4.3 [1]; Human immunodeficiency virus 1, TZM-bl, 48 h): 97.4%
CCCCN(CC)c1nc(C)nc2c1c(C)cn2-c1c(C)cc(C)cc1C [CP-154526 hydrochloride] | 97.1% |  | 
CNCCC=C1c2ccccc2CCc2ccccc21 [Nortriptyline hydrochloride] | 99.2% |  | 
CC(=O)OC[C@H]1O[C@@H]([S-])[C@H](OC(C)=O)[C@@H](OC(C)=O)[C@@H]1OC(C)=O.CCP(CC)CC.[Au+] [Auranofin] |  | 96.08% | 
Oc1ccc(/C=C/c2ccc(/C=C/c3ccc(O)cc3)c(Br)c2)cc1 [K114] |  | 96.16% | 
CC(=O)O[C@]1(C(C)=O)CC[C@H]2[C@@H]3C=C(Cl)C4=CC(=O)[C@@H]5C[C@@H]5[C@]4(C)[C@H]3CC[C@@]21C [Cyproterone acetate] | 98.5% |  | 
CCOC(=O)c1ncn2c1[C@@H]1CCCN1C(=O)c1cc(OC)ccc1-2 [L-655,708] |  | 97.43% | 
CC(C)NC[C@@H](O)c1ccc(O)c(O)c1.O=C(O)C(O)C(O)C(=O)O [S(+)-Isoproterenol (+)-bitartrate] |  | 97.10% | 
Nc1ccc(-c2nc3ccc(-c4nc5ccc(N)cc5[nH]4)cc3[nH]2)cc1 [RO 90-7501] |  | 99.67% | 
CCN(CC)CCOc1ccc(Nc2ncc3cc(-c4c(Cl)cccc4Cl)c(=O)n(C)c3n2)cc1 [PD-166285 hydrate] | 97% |  | 
NC(=O)CN1CC(O)CC1=O (centres unmarked) [Oxiracetam] | 96.5% |  | 
